US9532519B2, “Plant growth regulator and use thereof” (Japan Science and Technology Agency, priority 2006, dated 2017)

Assays:
[1] = test system: Arabidopsis GA synthesis mutants ga20ox1; test: Effect of oxidized glutathione on gibberellin synthesis mutant; assay type: in vivo; conditions: GSSG (1 mM) from sowing
From the text: In the drawing, “Col” indicates a wild-type Columbia, and “ga20ox1” indicates a mutant in which T-DNA is inserted into a GA20 oxidase gene that codes an enzyme of a GA biosynthesis. “ga20ox1-1” and “ga20ox1-2” are independent mutants in which T-DNA are inserted into different portions.

[2] = test system: transformants of Arabidopsis to which a gene encoding gFBA was introduced and wild-type Arabidopsis (Columbia; Col); conditions: in vivo
[3] = test system: Sweet corn (Canberra 90, TAKII & CO., LTD.); test: Effect 1 of oxidized glutathione on productivity of corn; assay type: in vivo; conditions: 200 mL of 0.5 mM-GSSG two times a week for 12 weeks at root
Protocol: Sweet corn (Canberra 90, TAKII & CO., LTD.) was sown, and then transferred to a hydroponics pot ( 1/2000 are) filled with a culture soil (6 L of vermiculite as the lower layer, 3 L of The Kureha Ikubyou Baido soil as the middle layer, and 3 L of vermiculite as the upper layer) two weeks later and additionally fertilized with 3 g of KUMIAI RIN […] S604 four weeks later and six weeks later. Further, the GSSG-treated plant was given 200 mL of 0.5 mM-GSSG two times a week for 12 weeks after germination at its root.

Sweet corn [4] = test: Effect of oxidized glutathione on productivity of corn under nitrogen-deficient condition; assay type: in vivo; conditions: nitrogen-deficient then 30 kgN/10a; 0.2, 0.5, 1.0 mM GSSG, 50 mL two times a week from 8 weeks after sowing
Protocol: Sweet corn was sown and cultivated for […] (7 weeks) after the sowing without supplying a nitrogen source to the sweet corn. Thereafter, the sweet corn was cultivated with 30 kgN/10a of a nitrogen source. […] See the cultivation conditions in (c) of FIG. 33.
In order to examine the amount of production of the plants in more detail, the amounts of biomass of fruits, ground parts, and portions other than the fruits were measured, and harvest index was calculated.

Arabidopsis [5] = test: Influence 5 of treatment condition on Arabidopsis: seed weight, dry weight, harvest index; assay type: in vivo
Protocol: Seeds of Arabidopsis were sown in pods filled with soil immersed in water. The pods were transferred to trays filled with water containing 0.2 mM-GSSG or 1 mM-GSSG and cultivated there only for two weeks that were the first and second weeks (0th-14th day), the third and fourth weeks (15th-28th day), the fifth and sixth weeks (29th-42nd day), or the seventh and eighth weeks (43rd-56th day) after the sowing. That is, Arabidopsis were treated with 0.2 mM-GSSG or 1 mM-GSSG only for two weeks in a specific growth period.
Arabidopsis was cultivated under the same conditions as those described in <1. Influence of oxidized glutathione on growth of Arabidopsis> except for the above condition.
The seed weight, dry weight, and harvest index of Arabidopsis thus cultivated (three plants in each pod) were measured and an average of three pods was calculated.

eustoma = test: Effect on promoting growth of roots of eustoma; assay type: in vivo; conditions: MS culture medium containing 1 mM-GSSG or GSH, grown 1 month, transferred to planter
From the text: In the planter, 2 parts of vermiculite, 1 part of The Kureha Ikubyou Baido soil, and 1 part of vermiculite were layered as a lower layer, a middle layer, and an upper layer, respectively, and the above plants were transferred thereto.

[6] = test system: transformants of Arabidopsis to which the gFBA gene was introduced and wild-type Arabidopsis (Columbia; Col); test: Influence 3 of oxidized glutathione on gFBA transformant Arabidopsis (GSSG only, 0 mM to 5 mM); assay type: in vivo; conditions: only GSSG as liquid fertilizer
From the text: This tendency was more clearly observed in the transformants of Arabidopsis to which the gFBA gene was introduced.

Arabidopsis [7] = test: Influence of oxidized glutathione on growth of Arabidopsis; assay type: in vivo; conditions: in vivo
Protocol: Specifically, the plants were cultivated with two or three plants in one pod of approximately 65 in width, 65 in depth, and 50 in height, and an appropriate amount of a treatment solution was supplied. The effect of the treatment was evaluated with respect to the number of rosette leaves, the speed of a growing flower stalk, the number of flowers, and the number of seeds.

Tsai-hsin = test: Influence of oxidized glutathione on growth of tsai-hsin, agricultural field; assay type: in vivo; conditions: 0.5 mM- or 5 mM-GSSG sprayed to leaves two times a week, 1 L per zone (3 m^2)
From the text: Tsai-hsin was cultivated for two weeks, and then transferred to an agricultural field and grown with or without the treatment with GSSG. Tsai-hsin was fertilized with a nitrogen fertilizer that was KUMIAI RIN […] S604 in a ratio of 20 kgN per 10 are, and was additionally fertilized with 5 kgN 3 weeks later.

Sweet corn [8] = conditions: in vivo
Arabidopsis seeds = test: Germination rate (ripeness) of seeds from Arabidopsis cultivated with oxidized glutathione; assay type: in vivo
From the text: Ripeness of seeds obtained from Arabidopsis cultivated with oxidized glutathione was examined.

[9] = test system: Rose saplings (breed; JJ scarlet and JJ apricot); test: Effect 2 on promoting growth of sprout and floral bud of rose (JJ scarlet and JJ apricot); assay type: in vivo; conditions: 50 mL of 0.5 mM-GSSG two times a week; fourth and eighth day from the fertilization
Protocol: Rose saplings (breed; JJ scarlet and JJ apricot) were purchased at a hardware store and cultivated in pods for rice hydroponics. The rose saplings were fertilized with 50 mL of a 0.5 mM-GSSG solution in the form of a liquid fertilizer two times a week.
In (a)-(d) of FIG. 35, the breeds of three plants are JJ scarlet, JJ apricot, and JJ scarlet, respectively from the left.

[10] = test system: strawberry (breed; Eminent garden series, Yokubari-ichigo kurenai (SUMIKA)); test: Effect of oxidized glutathione on growth of strawberry (number of runners); assay type: in vivo; conditions: 50 mL of 0.5 mM-GSSG two times a week; four months after the fertilization; Cont zone two or three runners

oxidized glutathione [GSSG]
seed weight [1]: significantly increased | number of flowers (sheaths) ([1]; 8 weeks after the sowing): also increased | number of lateral shoots vs water ([1]; 8 weeks after the sowing): significantly increased | ability to increase harvest index and crop yields, oxidized vs reduced glutathione [2]: higher ability to increase the harvest index and to significantly increase crop yields than reduced glutathione | amount of biomass of the portions other than the fruits vs not treated [3]: no great difference | amounts of biomass of the fruits and ground parts [3]: significantly high | formation of floral buds vs not treated [3]: promotion of formation of floral buds | harvest index vs not treated [3]: significantly high harvest index | number of edible seeds vs not treated [3]: more number of edible seeds | size of fruits vs not treated [3]: larger | size of seeds vs not treated [3]: larger | amount of fruits vs not treated (Sweet corn [4]): larger amount of fruits | amounts of biomass of fruits, ground parts, portions other than the fruits, and harvest index vs not treated (Sweet corn [4]): larger amounts of biomass of fruits, ground parts, and portions other than the fruits and harvest index | dry weight vs not treated (Arabidopsis [5]; 0.2 mM-GSSG): increased little | harvest index vs not treated (Arabidopsis [5]; 0.2 mM-GSSG): increased | seed weight vs not treated (Arabidopsis [5]; 0.2 mM-GSSG): increased | dry weight vs not treated (Arabidopsis [5]; 1 mM-GSSG): evidently increased | seed weight vs not treated (Arabidopsis [5]; 1 mM-GSSG): evidently increased | harvest index vs not treated (Arabidopsis [5]; 1 mM-GSSG, except when treated 1 or 2 weeks after the sowing): evidently increased | growth of roots vs plants not treated with GSSG (eustoma): significant growth of roots | effects of increasing seed weight and harvest index compared with ammonium nitrate [6]: greatly larger than the maximum effects yielded by fertilization with nitrogen resulting from ammonium nitrate | concentration of GSSG at which the effect on harvest index was saturated ([6]; 0 mM to 5 mM): approximately 2 mM | seed weight as function of GSSG concentration ([6]; 0 mM to 5 mM): increased as concentration of GSSG increased, and the effect was not saturated at the tested concentration | effective number of seeds per plant relative to plants cultivated with only water or 5 mM H2O2 (Arabidopsis [7]): approximately three or four times as large | growth of leaves (size and shape) (Arabidopsis [7]): grew larger and rounder | number of flowers and area of leaves (Arabidopsis [7]): greatly larger | plant length, stem and leaves (Arabidopsis [7]): shorter plant length, a thicker stem, and larger leaves | state of plant (life of plant) (Arabidopsis [7]): showed much amount of green leaves | amount of growth vs normal nitrogen management zone (Tsai-hsin): significant increase in the amount of growth | amount of biomass of fruits per plant vs not treated (Sweet corn [8]): higher amount of biomass of fruits | amount of biomass of ground parts vs not treated (Sweet corn [8]): substantially the same or lower amount of biomass of ground parts | amount of biomass of the portions other than fruits vs not treated (Sweet corn [8]): lower amount of biomass of the portions other than fruits | amounts of biomass of the portions other than fruits and ground parts vs not treated (Sweet corn [8]): greatly lower amounts of biomass of the portions other than fruits and ground parts | harvest index vs not treated (Sweet corn [8]): higher harvest index | whole amount of biomass per area vs not treated (Sweet corn [8]): did not exhibit a significant difference | germination rate (Arabidopsis seeds; 2 days after the sowing): significantly high | germination rate, difference from seeds of plants cultivated normally (Arabidopsis seeds; 7 days after the sowing): almost no difference | germination speed of seeds of treated plants vs plants cultivated normally (Arabidopsis seeds; seeds sown in 1/2 MS culture media): germinated faster | growth of sprout vs not treated [9]: promoted growth of sprout | number of runners per one stock [10]: several ten runners per one stock
